Structures can show the parent of a compound that is named as a salt.
Molecular target: T1, recombinant purified human EHMT2 913-1193 (Homo sapiens, UniProt Q96KQ7)
T1 construct: Recombinant purified human EHMT2 913-1193 (55 μM) synthesized by Viva was used for all experiments; purchased Viva
T1 sequence (Q96KQ7 913-1193): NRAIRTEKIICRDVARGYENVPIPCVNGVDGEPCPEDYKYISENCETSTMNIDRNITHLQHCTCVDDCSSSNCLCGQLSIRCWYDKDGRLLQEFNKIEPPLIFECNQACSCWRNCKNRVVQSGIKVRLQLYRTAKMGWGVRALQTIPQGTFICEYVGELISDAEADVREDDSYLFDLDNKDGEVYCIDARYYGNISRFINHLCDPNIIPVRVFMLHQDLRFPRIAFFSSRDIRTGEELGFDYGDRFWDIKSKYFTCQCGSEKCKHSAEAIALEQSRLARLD
Assay: EHMT2 enzyme assay on histone peptide substrate (3H-SAM Flashplate)
Format: biochemical
Conditions: read-out: EHMT2 PEP (IC50 μM)
Summary of the method: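 Compounds (10-point 3-fold series, top 50 μM final, 2% DMSO) preincubated 30 min with 0.031 nM EHMT2 in 20 mM Bicine pH 7.5, 1 mM TCEP; reaction started with 3H-SAM and biotinylated H3 1-15 peptide, both at Km, run 60 min at room temperature. Flashplate capture; IC50 from four-parameter fit, triplicates.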

| SMILES | IC50 |
| --- | --- |
| CNc1cc(C)nc(Nc2ccc(OC)c(-n3cc4c(n3)CCN(C)C4)c2)n1 [Compound 2] | < 0.1 µM |
| CNc1cc(C)nc(Nc2ccc(OC)c(-n3cc4c(n3)CN(C)CC4)c2)n1 [Compound 3] | 1 to 10 µM |
| CNc1cc(C)nc(Nc2ccc(OC)c(-n3ccc(CN4CCCC4)n3)c2)n1 [Compound 4, trifluoroacetic acid] | 1 to 10 µM |
| CNc1cc(C)nc(Nc2ccc(OC)c(-n3cc(CN4CCCC4)cn3)c2)n1 [Compound 5, 2-N-[4-methoxy-3-[4-(pyrrolidin-1-ylmethyl)-1H-pyrazol-1-yl]phenyl]-4-N,6-dimethylpyrimidine-2,4-diamine] | 1 to 10 µM |
| CNc1cc(C)nc(Nc2ccc(OC)c(-n3cc4ccncc4n3)c2)n1 [Compound 41] | > 10 µM |
| CNc1cc(C)nc(Nc2ccc(OC)c(-c3ccc4cc[nH]c4n3)c2)n1 [Compound 42] | > 10 µM |
| CNc1cc(C)nc(Nc2ccc(OC)c(-n3cc4c(n3)CCOC4)c2)n1 [Compound 43] | > 10 µM |
| CNc1cc(C)nc(Nc2ccc(OC)c(-c3nc4cnccc4[nH]3)c2)n1 [Compound 47] | 1 to 10 µM |
| CNc1cc(C)nc(Nc2ccc(OC)c(-c3cc4cnccc4[nH]3)c2)n1 [Compound 48] | 0.1 to 1 µM |
| CCn1cc(NC(=O)c2cc(Nc3nc(C)cc(NC)n3)ccc2OC)cn1 [Compound 49] | > 10 µM |
| CNc1cc(C)nc(Nc2cnc(OC)c(-n3cc4c(n3)CCNC4)c2)n1 [Compound 50] | 0.1 to 1 µM |
| CNc1cc(C)nc(Nc2ccc(OC)c(-n3cc4c(n3)CCCN4)c2)n1 [Compound 56, N2-(4-methoxy-3-(4,5,6,7-tetrahydro-2H-pyrazolo[4,3-b]pyridin-2-yl)phenyl)-N4,6-dimethylpyrimidine-2,4-diamine hydrochloride] | > 10 µM |
| CNc1cc(C)nc(Nc2cnc(OC)c(-n3cc4c(n3)CCN(C)C4)c2)n1 [Compound 57] | 1 to 10 µM |
| CNc1cc(C)nc(Nc2cnc(OC)c(-c3nc4cnccn4n3)c2)n1 [Compound 60] | > 10 µM |
| CNc1cc(C)nc(Nc2ccc(OC)c(-n3cnc(CN(C)C)n3)c2)n1 [Compound 61] | > 10 µM |
| CNc1cc(C)nc(Nc2cnc(OC)c(-n3cnc(CN(C)C)n3)c2)n1 [Compound 62] | > 10 µM |
| CNc1cc(C)nc(Nc2cc(-n3cc4c(n3)CCN(C)C4)c(OC)cn2)n1 [Compound 65] | > 10 µM |
| CNc1cc(C)nc(Nc2ccc(OC)c(-n3cc(CN(C)C)nn3)c2)n1 [Compound 66] | 0.1 to 1 µM |
| CNc1cc(C)nc(Nc2ccc(OC)c(-n3cnc(CN4CCC4)n3)c2)n1 [Compound 67] | > 10 µM |
| CNc1cc(C)nc(Nc2ccc(OC)c(-n3cnc(CN4CC(F)C4)n3)c2)n1 [Compound 68] | > 10 µM |
| CNc1cc(C)nc(Nc2ccc(OC)c(-n3cc4c(n3)CCN(C3COC3)C4)c2)n1 [Compound 69] | > 10 µM |

| SMILES | IC50 |
| --- | --- |
| CCN1CCc2nn(-c3cc(Nc4nc(C)cc(NC)n4)ccc3OC)cc2C1 [Compound 70] | 0.1 to 1 µM |
| CNc1cc(C)nc(Nc2ccc(OC)c(-c3nnc(CN(C)C)[nH]3)c2)n1 [Compound 73] | > 10 µM |
| CNc1cc(C)nc(Nc2cnc(OC)c(-n3cc(CN(C)C)cn3)c2)n1 [Compound 74] | 0.1 to 1 µM |
| CNc1cc(C)nc(Nc2ccc(OC)c(-n3ncc4c3CN(C(C)=O)CC4)c2)n1 [Compound 75] | > 10 µM |
| CNc1cc(C)nc(Nc2ccc(OC)c(-n3nccc3CNC(C)=O)c2)n1 [Compound 76] | > 10 µM |
| CNc1cc(C)nc(Nc2ccc(OC)c(-c3nnc4n3CCN(C(=O)OC(C)(C)C)C4)c2)n1 [Compound 77] | > 10 µM |
| CNc1cc(C)nc(Nc2ccc(OC)c(-c3nc4c([nH]3)CNCC4)c2)n1 [Compound 78] | 1 to 10 µM |
| CNc1cc(C)nc(Nc2ccc(OC)c(-c3nc4c([nH]3)CN(C)CC4)c2)n1 [Compound 79] | 1 to 10 µM |
| CNc1cc(C)nc(Nc2ccc(OC)c(-n3cc(C)c4c3CCN(C)C4)c2)n1 [Compound 81] | 1 to 10 µM |
| CNc1cc(C)nc(Nc2ccc(OC)c(-n3cc4c(n3)CCN(C3CC3)C4)c2)n1 [Compound 82] | 0.1 to 1 µM |
| COc1ncc(Nc2nc(C)cc(NCC3COC3)n2)cc1-n1cc(CN(C)C)nn1 [Compound 86] | > 10 µM |
| CNC(=O)CCNc1cc(C)nc(Nc2ccc(OC)c(-n3cc4c(n3)CCN(C)C4)c2)n1 [Compound 87] | 0.1 to 1 µM |
| CNC(=O)N1CC(CNc2cc(C)nc(Nc3ccc(OC)c(-n4cc5c(n4)CCN(C)C5)c3)n2)C1 [Compound 88] | 0.1 to 1 µM |
| CNc1cc(C)nc(Nc2ccc(OC)c(-c3cc4cnccn4n3)c2)n1 [Compound 93] | > 10 µM |
| CNc1cc(C)nc(Nc2ccc(OC)c(-n3cc(C)c(CNC(C)=O)n3)c2)n1 [Compound 94] | > 10 µM |
| CNc1cc(C)nc(Nc2ccc(OC)c(-n3ccc(CNC(C)=O)n3)c2)n1 [Compound 95] | > 10 µM |
| CNc1cc(C)nc(Nc2ccc(OC)c(-n3ccc(CN(C)C(C)=O)n3)c2)n1 [Compound 96] | > 10 µM |
| CNc1cc(C)nc(Nc2ccc(OC)c(-n3cc4c(C)nccc4n3)c2)n1 [Compound 99] | 1 to 10 µM |
| CNc1cc(C)nc(Nc2ccc(OC)c(-n3cc4c(OC)nccc4n3)c2)n1 [Compound 100] | > 10 µM |
| CNc1cc(C)nc(Nc2ccc(OC)c(-n3cc(C)c(CN(C)C)n3)c2)n1 [Compound 102] | 1 to 10 µM |
| CNC(=O)c1cn(-c2cc(Nc3nc(C)cc(NC)n3)ccc2OC)nc1C [Compound 103] | > 10 µM |

| SMILES | IC50 |
| --- | --- |
| CNC(=O)c1cnn(-c2cc(Nc3nc(C)cc(NC)n3)ccc2OC)c1 [Compound 104] | > 10 µM |
| CNC(=O)c1c(C)nn(-c2cc(Nc3nc(C)cc(NC)n3)ccc2OC)c1C [Compound 105] | > 10 µM |
| CNCc1c(C)nn(-c2cc(Nc3nc(C)cc(NC)n3)ccc2OC)c1C [Compound 106] | > 10 µM |
| CNc1cc(C)nc(Nc2ccc(OC)c(-n3cc(CN(C)C)cn3)c2)n1 [Compound 109, N2-(3-(4-((dimethylamino)methyl)-1H-pyrazol-1-yl)-4-methoxyphenyl)-N4,6-dimethylpyrimidine-2,4-diamine] | < 0.1 µM |
| CNc1cc(C)nc(Nc2ccc(OC)c(-n3ncc4c3CCNC4)c2)n1 [Compound 113, N2-(4-methoxy-3-(4,5,6,7-tetrahydro-1H-pyrazolo[4,3-c]pyridin-1-yl)phenyl)-N4,6-dimethylpyrimidine-2,4-diamine] | < 0.1 µM |
| CNc1cc(C2CCOCC2)c2cc(OC)c(-n3cc(CN(C)C)nn3)cc2n1 [Compound 116] | 1 to 10 µM |
| CNC(=O)c1cn(-c2cc(Nc3nc(C)cc(NC)n3)ccc2OC)nn1 [Compound 117] | > 10 µM |
| CNc1cc(C)nc(Nc2ccc(OC)c(-n3ncc4ncccc43)c2)n1 [Compound 119] | > 10 µM |
| CNc1cc(C)nc(Nc2ccc(OC)c(-n3cc(CN4CCC4)nn3)c2)n1 [Compound 121] | 0.1 to 1 µM |
| CNCc1cn(-c2cc3nc(NC)cc(C)c3cc2OC)nn1 [Compound 122] | 1 to 10 µM |
| CNc1cc(C)c2cc(OC)c(-n3cc(C4CCCN4)nn3)cc2n1 (stereo not shown) [Compound 125] | 0.1 to 1 µM |
| CNC(=O)c1nn(-c2cc(Nc3nc(C)cc(NC)n3)ccc2OC)cc1C [Compound 134] | > 10 µM |
| CNc1cc(C)nc(Nc2ccc(OC)c(-n3cc(C4CCCN4C)nn3)c2)n1 (stereo not shown) [Compound 136] | 0.1 to 1 µM |
| CNc1cc(C)nc(Nc2ccc(OC)c(-n3cc(C4CCCN4)nn3)c2)n1 (stereo not shown) [Compound 137, N2-(4-methoxy-3-(4-(pyrrolidin-2-yl)-1H-1,2,3-triazol-1-yl)phenyl)-N4,6-dimethylpyrimidine-2,4-diamine] | < 0.1 µM |
| CNc1cc(C)nc(Nc2ccc(OC)c(-n3nnc(C)c3CN(C)C)c2)n1 [Compound 138] | > 10 µM |
| CNc1cc(C)nc(Nc2ccc(OC)c(-n3nnc(CN(C)C)c3C)c2)n1 [Compound 139] | > 10 µM |
| CCN(CC)Cc1cn(-c2cc(Nc3nc(C)cc(NC)n3)ccc2OC)nn1 [Compound 143] | 0.1 to 1 µM |
| CNc1cc(C)nc(Nc2ccc(OC)c(-n3cc4cc(C)ccc4n3)c2)n1 [Compound 144] | 1 to 10 µM |
| CNc1cc(C)nc(Nc2ccc(OC)c(-n3cc4cc(C5CC5)ccc4n3)c2)n1 [Compound 145] | > 10 µM |
